This assay relates to BDF1 mice, P388 leukemia ip, median survival T/C. In words: NCI In Vivo Anticancer Drug Screen. Data for tumor model P388 Leukemia (intraperitoneal) in B6D2F1 (BDF1) mice. The settings on record: endpoint: median survival time, higher = longer survival. The essentials: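 Compound-treated tumour-bearing mice were compared with vehicle-treated controls. Survival was recorded, and the value is the treated-group measurement divided by the control-group measurement (T/C).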

Where [1] appears, read: dose: 100.0 mg/kg/injection, schedule: Q01DX009 (ip), vehicle: saline with Tween-80.
The mark [2] stands for this setting: dose: 400.0 mg/kg/injection, schedule: Q01DX009 (ip), vehicle: saline with Tween-80.
The mark [3] stands for this setting: dose: 6.25 mg/kg/injection, schedule: Q01DX009 (ip), vehicle: saline.
The mark [4] stands for this setting: dose: 25.0 mg/kg/injection, schedule: Q01DX009 (ip), vehicle: saline.
Where [5] appears, read: dose: 50.0 mg/kg/injection, schedule: Q04DX003 (ip), vehicle: saline.
Setting [6] is: dose: 50.0 mg/kg/injection, schedule: Q01DX009 (ip), vehicle: saline.
The mark [7] stands for this setting: dose: 100.0 mg/kg/injection, schedule: Q01DX009 (ip), vehicle: saline.
The mark [8] stands for this setting: dose: 200.0 mg/kg/injection, schedule: Q01DX009 (ip), vehicle: saline.
Where [9] appears, read: dose: 12.5 mg/kg/injection, schedule: Q01DX009 (ip), vehicle: saline.
Where [10] appears, read: dose: 25.0 mg/kg/injection, schedule: Q01DX009 (ip), vehicle: saline with Tween-80.
[11] abbreviates: dose: 50.0 mg/kg/injection, schedule: Q01DX009 (ip), vehicle: saline with Tween-80.
Setting [12] is: dose: 100.0 mg/kg/injection, schedule: Q04DX003 (ip), vehicle: saline with Tween-80.
Setting [13] is: dose: 200.0 mg/kg/injection, schedule: Q01DX009 (ip), vehicle: saline with Tween-80.

The structures appear in SMILES notation. Where “and” joins values, the source holds several entries; their conditions need not be identical. Equal values may be shown once. Inconclusive results and toxic doses are left out.

In the case of `CC(=O)OCCC(CCOC(C)=O)=C1N=C(c2ccccc2)OC1=O`, the T/C is, setting by setting: under setting [1], 120 % of control; (dose: 300.0 mg/kg/injection, schedule: Q01DX009 (ip), vehicle: saline with Tween-80) 118 % of control; under setting [2], 116 % of control.
For the compound `CO[C@@H](C=O)O[C@@H](C=O)CO`, the T/C under setting [3] is 120 % of control; the T/C under setting [4] is 150 % of control; the T/C under setting [5] was 150 % of control; the T/C (dose: 89.0 mg/kg/injection, schedule: Q04DX003 (ip), vehicle: saline) is 170 % of control; the T/C (dose: 100.0 mg/kg/injection, schedule: Q04DX003 (ip), vehicle: saline) is 160 % of control; the T/C (dose: 133.0 mg/kg/injection, schedule: Q04DX003 (ip), vehicle: saline) was 160 % of control. In addition, for the setting “dose: 200.0 mg/kg/injection, schedule: Q04DX003 (ip), vehicle: saline”, the T/C is 175 % of control and 180 % of control.
Take `NC(=O)C(N)CCSCC(=O)O` (stereo not given): the T/C under setting [6] is 88 % of control, the T/C under setting [7] is 91 % of control and the T/C under setting [8] is 94 % of control.
As to `C=C1[C@@H](C)[C@H]2[C@H](Cc3ccccc3)NC(=O)[C@]23OC(=O)/C=C/[C@H](O)CCC[C@@H](C)C/C=C/[C@H]3[C@@H]1O`, the T/C is, setting by setting: (dose: 0.25 mg/kg/injection, schedule: Q01DX005 (ip), vehicle: saline with Tween-80) 86 % of control; (dose: 0.5 mg/kg/injection, schedule: Q01DX005 (ip), vehicle: saline with Tween-80) 100 % of control; (dose: 1.0 mg/kg/injection, schedule: Q01DX005 (ip), vehicle: saline with Tween-80) 100 % of control; (dose: 1.0 mg/kg/injection, schedule: Q04DX002 (ip), vehicle: saline) 109 % of control; (dose: 2.0 mg/kg/injection, schedule: Q01DX005 (ip), vehicle: saline with Tween-80) 107 % of control; (dose: 2.0 mg/kg/injection, schedule: Q04DX002 (ip), vehicle: saline) 109 % of control. In addition, the T/C reads like this: (dose: 4.0 mg/kg/injection, schedule: Q01DX005 (ip), vehicle: saline with Tween-80) 115 % of control; (dose: 8.0 mg/kg/injection, schedule: Q01DX005 (ip), vehicle: saline with Tween-80) 117 % of control; (dose: 8.0 mg/kg/injection, schedule: Q04DX002 (ip), vehicle: saline) 109 % of control; (dose: 16.0 mg/kg/injection, schedule: Q04DX002 (ip), vehicle: saline) 109 % of control; (dose: 32.0 mg/kg/injection, schedule: Q04DX002 (ip), vehicle: saline) 100 % of control.
Consider `COC(=O)C(C)C(=O)OC`, for which the T/C by setting is: (dose: 100.0 mg/kg/injection, schedule: Q01DX001 (ip), vehicle: saline) 100 % of control; under setting [7], 90 % of control; (dose: 200.0 mg/kg/injection, schedule: Q01DX001 (ip), vehicle: saline) 100 % of control; under setting [8], 100 % of control; (dose: 400.0 mg/kg/injection, schedule: Q01DX001 (ip), vehicle: saline) 113 % of control; (dose: 400.0 mg/kg/injection, schedule: Q01DX009 (ip), vehicle: saline) 109 % of control.
For the compound `Nc1ncc(Cl)c2ccccc12`, the T/C (dose: 25.0 mg/kg/injection, schedule: Q01DX005 (ip), vehicle: saline with Tween-80) was 89 % of control.
With `O=C1OC(=O)C2C3C=CC(O3)C12` (stereo not given), the T/C (dose: 3.28 mg/kg/injection, schedule: Q04DX003 (ip), vehicle: saline) was 100 % of control; the T/C under setting [3] is 110 % of control; the T/C (dose: 6.56 mg/kg/injection, schedule: Q04DX003 (ip), vehicle: saline) is 100 % of control; the T/C under setting [9] was 104 % of control and 105 % of control; the T/C (dose: 13.12 mg/kg/injection, schedule: Q04DX003 (ip), vehicle: saline) is 100 % of control; the T/C under setting [4] is 90 % of control and 104 % of control. Besides, the T/C (dose: 35.0 mg/kg/injection, schedule: Q01DX009 (ip), vehicle: saline) was 104 % of control.
As for `COc1ccc(CC[N+]2=Cc3cc(OC)c(OC)cc3CC2)cc1OC`, the T/C is 104 % of control and 111 % of control under setting [3]; 100 % of control under setting [9]; 109 % of control (dose: 12.5 mg/kg/injection, schedule: Q04DX003 (ip), vehicle: saline); 100 % of control and 104 % of control under setting [4]; 117 % of control (dose: 25.0 mg/kg/injection, schedule: Q04DX003 (ip), vehicle: saline); 95 % of control and 103 % of control and 107 % of control under setting [6]. The T/C under setting [5] was 101 % of control and 103 % of control; the T/C under setting [7] is 98 % of control; the T/C (dose: 150.0 mg/kg/injection, schedule: Q01DX009 (ip), vehicle: saline) was 95 % of control.
As for `ClCc1cccc(CCl)c1`, the T/C was 108 % of control (dose: 50.0 mg/kg/injection, schedule: Q01DX009 (ip), vehicle: saline sonified); 108 % of control (dose: 100.0 mg/kg/injection, schedule: Q01DX009 (ip), vehicle: saline sonified); 86 % of control (dose: 200.0 mg/kg/injection, schedule: Q01DX009 (ip), vehicle: saline sonified).
In the case of `Cc1nc(Cl)c2cnccn12`, the T/C is, setting by setting: under setting [9], 100 % of control; under setting [4], 95 % of control; under setting [6], 86 % of control.
With `Cc1ccc(NC(=O)Oc2c(C)cc(Cl)cc2C)c([N+](=O)[O-])c1`, the T/C was 90 % of control under setting [10] and 101 % of control under setting [11].
For the compound `c1ccc(-c2oc3cc4c(cc3c2-c2ccc(OCCN3CCCC3)cc2)CCC4)cc1`, the T/C under setting [12] is 95 % of control.
As to `COC1(OC)OC(c2ccccc2)=C(C#N)C(/C=C\c2ccccc2)C1(OC)OC` (stereo not given), the T/C runs as follows: (dose: 12.5 mg/kg/injection, schedule: Q01DX009 (ip), vehicle: saline with Tween-80) 100 % of control; under setting [10], 91 % of control; under setting [11], 90 % of control and 91 % of control; under setting [13], 106 % of control.
In the case of `O=C1c2ccccc2C(O)(c2ccccc2)c2c(Cl)cccc21` (stereo not given), the T/C reads like this: under setting [11], 104 % of control; under setting [1], 111 % of control; under setting [13], 95 % of control.
With `Cc1ccccc1OCCCCCl`, the T/C under setting [1] is 115 % of control, the T/C under setting [13] was 107 % of control and the T/C under setting [2] was 115 % of control.
Turning to `CCCCCCCCCCCCOc1ccc(C)cc1`, the T/C was 109 % of control under setting [12]; 100 % of control (dose: 200.0 mg/kg/injection, schedule: Q04DX003 (ip), vehicle: saline with Tween-80); 100 % of control (dose: 400.0 mg/kg/injection, schedule: Q04DX003 (ip), vehicle: saline with Tween-80).
Regarding `CCCCCCCCCCOP(=O)(O)OCCCCCCCCCC`, the T/C by setting is: (dose: 12.5 mg/kg/injection, schedule: Q01DX009 (ip), vehicle: Klucel (hydroxypropylcellulose) (HPC)) 95 % of control; (dose: 25.0 mg/kg/injection, schedule: Q01DX009 (ip), vehicle: Klucel (hydroxypropylcellulose) (HPC)) 99 % of control; (dose: 50.0 mg/kg/injection, schedule: Q01DX009 (ip), vehicle: Klucel (hydroxypropylcellulose) (HPC)) 95 % of control.
Take `CCCC1([N+](C)(C)C)CSC1CC` (stereo not given): the T/C (dose: 12.5 mg/kg/injection, schedule: Q04DX002 (ip), vehicle: saline) is 105 % of control; the T/C (dose: 25.0 mg/kg/injection, schedule: Q04DX002 (ip), vehicle: saline) is 103 % of control; the T/C (dose: 50.0 mg/kg/injection, schedule: Q04DX002 (ip), vehicle: saline) was 96 % of control.
`NC(=S)c1ncc(N)s1`: the T/C by setting is: under setting [10], 89 % of control; under setting [11], 98 % of control; under setting [1], 106 % of control.
Take `O=CCSC(=S)NNc1ccccc1`: the T/C (dose: 75.0 mg/kg/injection, schedule: Q01DX001 (ip), vehicle: Klucel (hydroxypropylcellulose) (HPC)) is 110 % of control; the T/C (dose: 150.0 mg/kg/injection, schedule: Q01DX001 (ip), vehicle: Klucel (hydroxypropylcellulose) (HPC)) was 105 % of control; the T/C (dose: 300.0 mg/kg/injection, schedule: Q01DX001 (ip), vehicle: Klucel (hydroxypropylcellulose) (HPC)) was 95 % of control.
On to `Nc1ccn(C2OC(CO)C(O)C2O)c(=O)c1` (stereo not given), for which the T/C by setting is: under setting [4], 93 % of control; under setting [6], 95 % of control; under setting [7], 112 % of control; under setting [8], 102 % of control.

The record behind these values is PubChem BioAssay AID328 (DTP/NCI, 2004).
